Measurements reported in patent publication US8293901B2, “MAPK/ERK kinase inhibitors” (Takeda Pharmaceutical Company Limited, priority 2006, dated 2012).

target: MEK1 (Homo sapiens, UniProt Q02750, DEL33-52/S218E/S222D); experiment: MEK1 inhibition, ERK1/FI-Erktide fluorescence polarization assay with IMAP beads
Sequence (Q02750 with tags, fused parts or gaps DEL33-52/S218E/S222D): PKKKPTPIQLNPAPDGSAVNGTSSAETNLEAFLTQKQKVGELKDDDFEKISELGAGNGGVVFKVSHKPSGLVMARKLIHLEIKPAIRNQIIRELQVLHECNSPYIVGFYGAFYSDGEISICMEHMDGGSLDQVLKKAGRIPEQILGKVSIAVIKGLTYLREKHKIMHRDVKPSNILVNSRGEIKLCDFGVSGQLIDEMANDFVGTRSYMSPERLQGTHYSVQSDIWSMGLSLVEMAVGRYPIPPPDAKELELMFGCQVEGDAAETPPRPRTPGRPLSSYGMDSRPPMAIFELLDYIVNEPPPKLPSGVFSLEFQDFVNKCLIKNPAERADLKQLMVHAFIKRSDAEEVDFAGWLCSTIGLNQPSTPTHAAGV

IC50 [nM]	Compound
≥ 16	COC(=O)Cn1cnc2c(c(Nc3ccc(I)cc3F)cc(=O)n2C)c1=O [Example 3, Methyl 2-(5-(2-fluoro-4-iodophenylamino)-8-methyl-4,7-dioxo-7,8-dihydropyrido[2,3-d]pyrimidin-3(4H)-yl)acetate]
≤ 5	Cn1c(=O)c(Cl)c(Nc2ccc(I)cc2F)c2c(=O)n(C[C@H](O)CO)cnc21 [Example 7, (S)-6-Chloro-3-(2,3-dihydroxypropyl)-5-(2-fluoro-4-iodophenylamino)-8-methylpyrido[2,3-d]pyrimidine-4,7(3H,8H)-dione]
≥ 16	Cc1c(Nc2ccc(Br)cc2F)c2c(=O)n(C[C@H](O)CO)cnc2n(C)c1=O [Example 9, (S)-5-(4-Bromo-2-fluorophenylamino)-3-(2,3-dihydroxypropyl)-6,8-dimethylpyrido[2,3-d]pyrimidine-4,7(3H,8H)-dione]
≥ 16	Cc1c(Nc2ccc(Br)cc2F)c2c(=O)n(C[C@@H](O)CO)cnc2n(C)c1=O [Example 10, (R)-5-(4-Bromo-2-fluorophenylamino)-3-(2,3-dihydroxypropyl)-6,8-dimethylpyrido[2,3-d]pyrimidine-4,7(3H,8H)-dione]
≥ 16	Cc1c(Nc2ccc(Br)cc2F)c2c(=O)n(CCO)cnc2n(C)c1=O [Example 11, 5-(4-Bromo-2-fluorophenylamino)-3-(2-hydroxyethyl)-6,8-dimethylpyrido[2,3-d]pyrimidine-4,7(3H,8H)-dione]
≤ 5	Cc1c(Nc2ccc(I)cc2F)c2c(=O)n(CCO)cnc2n(C)c1=O [Example 14, 5-(2-Fluoro-4-iodophenylamino)-3-(2-hydroxyethyl)-6,8-dimethylpyrido[2,3-d]pyrimidine-4,7(3H,8H)-dione]
≥ 16	Cc1c(Nc2ccccc2F)c2c(=O)n(CCO)cnc2n(C)c1=O [Example 15, 5-(2-Fluorophenylamino)-3-(2-hydroxyethyl)-6,8-dimethylpyrido[2,3-d]pyrimidine-4,7(3H,8H)-dione]
5 to 15	C#Cc1ccc(Nc2c(C)c(=O)n(C)c3ncn(C[C@@H](O)CO)c(=O)c23)c(F)c1 [Example 16, (R)-3-(2,3-Dihydroxypropyl)-5-(4-ethynyl-2-fluorophenylamino)-6,8-dimethylpyrido[2,3-d]pyrimidine-4,7(3H,8H)-dione]
≤ 5	Cn1c(=O)c(F)c(Nc2ccc(I)cc2F)c2c(=O)n(C[C@@H](O)CO)cnc21 [Example 18, (R)-3-(2,3-Dihydroxypropyl)-6-fluoro-5-(2-fluoro-4-iodophenylamino)-8-methylpyrido[2,3-d]pyrimidine-4,7(3H,8H)-dione]
≤ 5	Cn1c(=O)c(F)c(Nc2ccc(I)cc2F)c2c(=O)n(C[C@H](O)CO)cnc21 [Example 19, (S)-3-(2,3-Dihydroxypropyl)-6-fluoro-5-(2-fluoro-4-iodophenylamino)-8-methylpyrido[2,3-d]pyrimidine-4,7(3H,8H)-dione]
5 to 15	C#Cc1ccc(Nc2c(F)c(=O)n(C)c3ncn(C[C@H](O)CO)c(=O)c23)c(F)c1 [Example 21, (S)-3-(2,3-Dihydroxypropyl)-5-(4-ethynyl-2-fluorophenylamino)-6-fluoro-8-methylpyrido[2,3-d]pyrimidine-4,7(3H,8H)-dione]
≤ 5	C#Cc1ccc(Nc2c(F)c(=O)n(C)c3ncn(C[C@@H](O)CO)c(=O)c23)c(F)c1 [Example 22, (R)-3-(2,3-dihydroxypropyl)-5-(4-ethynyl-2-fluorophenylamino)-6-fluoro-8-methylpyrido[2,3-d]pyrimidine-4,7(3H,8H)-dione]
≥ 16	Cn1c(=O)c(F)c(Nc2ccc(NS(C)(=O)=O)cc2F)c2c(=O)n(C[C@@H](O)CO)cnc21 [Example 23, (R)—N-(4-(3-(2,3-Dihydroxypropyl)-6-fluoro-8-methyl-4,7-dioxo-3,4,7,8-tetrahydropyrido[2,3-d]pyrimidin-5-ylamino)-3-fluorophenyl)methanesulfonamide]
≤ 5	Cn1c(=O)c(F)c(Nc2ccc(I)cc2F)c2c(=O)n(C(CO)CO)cnc21 [Example 25, 3-(1,3-Dihydroxypropan-2-yl)-6-fluoro-5-(2-fluoro-4-iodophenylamino)-8-methylpyrido[2,3-d]pyrimidine-4,7(3H,8H)-dione]
≤ 5	Cn1c(=O)c(F)c(Nc2ccc(I)cc2F)c2c(=O)n(OC[C@H](O)CO)cnc21 [Example 28, (R)-3-(2,3-Dihydroxypropoxy)-6-fluoro-5-(2-fluoro-4-iodophenylamino)-8-methylpyrido[2,3-d]pyrimidine-4,7(3H,8H)-dione]
5 to 15	Cn1c(=O)c(Cl)c(Nc2ccc(Br)cc2F)c2c(=O)n(C[C@@H](O)CO)cnc21 [Example 29, (R)-5-(4-Bromo-2-fluorophenylamino)-6-chloro-3-(2,3-dihydroxypropyl)-8-methylpyrido[2,3-d]pyrimidine-4,7(3H,8H)-dione]
≤ 5	Cn1c(=O)c(Cl)c(Nc2ccc(I)cc2F)c2c(=O)n(CCO)cnc21 [Example 30, 6-Chloro-5-(2-fluoro-4-iodophenylamino)-3-(2-hydroxyethyl)-8-methylpyrido[2,3-d]pyrimidine-4,7(3H,8H)-dione]
≤ 5	Cn1c(=O)cc(Nc2ccc(I)cc2F)c2c(=O)n(CCCO)cnc21 [Example 31, 5-(2-Fluoro-4-iodophenylamino)-3-(3-hydroxypropyl)-8-methylpyrido[2,3-d]pyrimidine-4,7(3H,8H)-dione]
≤ 5	Cn1c(=O)c(Cl)c(Nc2ccc(I)cc2F)c2c(=O)n(CCCO)cnc21 [Example 32, 6-Chloro-5-(2-fluoro-4-iodophenylamino)-3-(3-hydroxypropyl)-8-methylpyrido[2,3-d]pyrimidine-4,7(3H,8H)-dione]
≥ 16	Cn1c(=O)cc(Nc2ccc(Br)cc2F)c2c(=O)n(CCCO)cnc21 [Example 33, 5-(4-Bromo-2-fluorophenylamino)-3-(3-hydroxypropyl)-8-methylpyrido[2,3-d]pyrimidine-4,7(3H,8H)-dione]
5 to 15	Cn1c(=O)c(Cl)c(Nc2ccc(Br)cc2F)c2c(=O)n(CCCO)cnc21 [Example 34, 5-(4-Bromo-2-fluorophenylamino)-6-chloro-3-(3-hydroxypropyl)-8-methylpyrido[2,3-d]pyrimidine-4,7(3H,8H)-dione]
≥ 16	Cn1c(=O)cc(Nc2ccc(Br)cc2Cl)c2c(=O)n(CCCO)cnc21 [Example 35, 5-(4-Bromo-2-chlorophenylamino)-3-(3-hydroxypropyl)-8-methylpyrido[2,3-d]pyrimidine-4,7(3H,8H)-dione]
≥ 16	Cn1c(=O)c(Cl)c(Nc2ccc(Br)cc2Cl)c2c(=O)n(CCCO)cnc21 [Example 36, 5-(4-Bromo-2-chlorophenylamino)-6-chloro-3-(3-hydroxypropyl)-8-methylpyrido[2,3-d]pyrimidine-4,7(3H,8H)-dione]
≥ 16	CN(C)CCn1cnc2c(c(Nc3ccc(I)cc3F)cc(=O)n2C)c1=O [Example 37, 3-(2-(Dimethylamino)ethyl)-5-(2-fluoro-4-iodophenylamino)-8-methylpyrido[2,3-d]pyrimidine-4,7(3H,8H)-dione]
≥ 16	CC(O)Cn1cnc2c(c(Nc3ccc(I)cc3F)cc(=O)n2C)c1=O (centres unmarked) [Example 38, 5-(2-Fluoro-4-iodophenylamino)-3-(2-hydroxypropyl)-8-methylpyrido[2,3-d]pyrimidine-4,7(3H,8H)-dione]
5 to 15	CC(O)Cn1cnc2c(c(Nc3ccc(I)cc3F)c(Cl)c(=O)n2C)c1=O (centres unmarked) [Example 40, 6-Chloro-5-(2-fluoro-4-iodophenylamino)-3-(2-hydroxypropyl)-8-methylpyrido[2,3-d]pyrimidine-4,7(3H,8H)-dione]
≥ 16	Cn1c(=O)cc(Nc2ccc(I)cc2F)c2c(=O)n(Cc3ccccc3)cnc21 [Example 42, 3-Benzyl-5-(2-fluoro-4-iodophenylamino)-8-methylpyrido[2,3-d]pyrimidine-4,7(3H,8H)-dione]
5 to 15	Cc1c(Nc2ccc(I)cc2F)c2c(=O)n(C(CO)CO)cnc2n(C)c1=O [Example 43, 3-(1,3-Dihydroxypropan-2-yl)-5-(2-fluoro-4-iodophenylamino)-6,8-dimethylpyrido[2,3-d]pyrimidine-4,7(3H,8H)-dione]
5 to 15	C#Cc1ccc(Nc2c(C)c(=O)n(C)c3ncn(C[C@H](O)CO)c(=O)c23)c(F)c1 [Example 44, (S)-3-(2,3-Dihydroxypropyl)-5-(4-ethynyl-2-fluorophenylamino)-6,8-dimethylpyrido[2,3-d]pyrimidine-4,7(3H,8H)-dione]
